# In PubChem BioAssay (NCI):
# “And” between values parts separate entries of the source, which are not always exact repeats. Equal values may be shown once.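 Tested at 5 concentrations; 48 h exposure; 96-well plates; endpoints linearly interpolated, else capped at highest concentration. GI50: concentration for 50% inhibition of growth. TGI is the concentration that stops growth completely.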
# Experiments:
# Assay in all cases: inhibition of tumour cell growth, NCI panel, 48 h
# 786-0 renal = tested on: 786-0 renal
# A498 renal = tested on: A498 renal
# ACHN renal = tested on: ACHN renal
# CAKI-1 renal = tested on: CAKI-1 renal
# CCRF-CEM leukemia = tested on: CCRF-CEM leukemia
# COLO 205 colon = tested on: COLO 205 colon
# HS 578T breast = tested on: HS 578T breast
# IGROV1 ovarian = tested on: IGROV1 ovarian
# K-562 leukemia = tested on: K-562 leukemia
# MDA-MB-231 breast = tested on: MDA-MB-231 breast
# MDA-MB-435 = tested on: MDA-MB-435
# MOLT-4 leukemia = tested on: MOLT-4 leukemia
# RPMI-8226 leukemia = tested on: RPMI-8226 leukemia
# SF-539 CNS = tested on: SF-539 CNS
# SK-MEL-2 melanoma = tested on: SK-MEL-2 melanoma
# U251 CNS = tested on: U251 CNS
# UACC-62 melanoma = tested on: UACC-62 melanoma
Compound,TGI (786-0 renal),TGI (A498 renal),TGI (ACHN renal),TGI (CAKI-1 renal),TGI (CCRF-CEM leukemia),TGI (COLO 205 colon),TGI (HS 578T breast),TGI (IGROV1 ovarian),TGI (K-562 leukemia),TGI (MDA-MB-231 breast),TGI (MDA-MB-435),TGI (MOLT-4 leukemia),TGI (RPMI-8226 leukemia),TGI (SF-539 CNS),TGI (SK-MEL-2 melanoma),TGI (U251 CNS),TGI (UACC-62 melanoma),GI50 (A498 renal),GI50 (CAKI-1 renal),GI50 (HS 578T breast)
Nc1ccc(-c2nnc(-c3c(Cl)c(Cl)c(Cl)c(Cl)c3-c3nc4ccc(C(=O)c5ccccc5)cc4[nH]3)o2)cc1,36.1 µM,63.2 µM,> 100 µM,> 100 µM,70.3 µM,50.2 µM,> 100 µM,> 100 µM,31.6 µM,55.4 µM,75.8 µM,66.7 µM,31.8 µM,29.3 µM,88.3 µM,47.4 µM,–,–,–,–
CCOC(=O)c1ccc(N(C)Cc2cnc3nc(N)nc(N)c3n2)cc1,> 100 µM,59.8 µM,20.2 µM,45 µM,> 100 µM,> 100 µM,73.1 µM,86 µM,> 100 µM,81.7 µM,> 100 µM,> 100 µM,> 100 µM,33.9 µM,80 µM,> 100 µM,33.8 µM,–,–,–
CCOC(=O)c1sc2c(c1OC(=O)c1ccc(Cl)cc1Cl)c(=O)n(-c1ccccc1)c(=S)n2-c1ccccc1,> 100 µM,46.1 µM,> 100 µM,> 100 µM,> 100 µM,35.4 µM,> 100 µM,> 40.9 µM,> 100 µM,> 90.8 µM,> 100 µM,14.5 µM,> 54.5 µM,> 100 µM,18.6 µM,> 56.1 µM,> 80.2 µM,–,–,–
COc1ccc2cc(NC(=O)Nn3cnnc3)ccc2c1,> 100 µM,> 100 µM,> 100 µM,> 100 µM,> 100 µM,> 100 µM,> 100 µM,> 100 µM,> 100 µM,> 100 µM,> 100 µM,> 100 µM,> 100 µM,> 100 µM,> 100 µM,> 100 µM,> 100 µM,–,–,–
NCCSC1(O)C(=O)c2ccccc2-c2ccccc21 (stereo not given),3.46 µM,3.11 µM,2.23 µM,3.05 µM,6.82 µM,3.84 µM,6.2 µM,3.73 µM,2.43 µM,2.53 µM,0.207 µM,1.21 µM,0.637 µM,2.67 µM,3.47 µM,2.16 µM,2.91 µM,1.71 µM,1.63 µM,–
Cc1ccc2[nH]c3c(C)c4cc[n+](C)cc4c(C)c3c2c1,2.75 µM,4.53 µM,57.9 µM,> 56.5 µM,40.3 µM,5.05 µM,0.917 µM,32.2 µM,63.4 µM,> 44.7 µM,13.7 µM,54.9 µM,> 59.7 µM,2.73 µM,4.71 µM,2.11 µM,16.4 µM,–,–,–
COc1cc2c(OC)c3cc(C)oc(=O)c3c(O)c2c(O)c1-c1c(OC)cc2c(OC)c3cc(C)oc(=O)c3c(O)c2c1O,60.8 µM,51 µM,33.3 µM,47 µM,39.3 µM,–,> 100 µM,31.1 µM,34.3 µM,36.6 µM,33.9 µM,31.8 µM,40.2 µM,35.7 µM,35.8 µM,31.7 µM,41 µM,–,–,–
[N-]=[N+]=NCC(=O)c1c[nH]c(=O)[nH]c1=O,> 100 µM,> 100 µM,> 100 µM,> 100 µM,> 100 µM,> 100 µM,> 100 µM,> 100 µM,> 100 µM,> 100 µM,> 100 µM,–,> 100 µM,> 100 µM,> 100 µM,> 100 µM,> 100 µM,–,–,–
CN(NC(=O)c1ccc(Cl)cc1)C1=NCCCCN1,> 100 µM,> 100 µM,> 100 µM,> 100 µM,> 100 µM,> 100 µM,> 100 µM,> 100 µM,> 100 µM,> 100 µM,> 100 µM,> 100 µM,> 100 µM,> 100 µM,> 100 µM,> 100 µM,> 100 µM,–,–,–
CC(=O)OCC(OC(C)=O)C(OC(C)=O)C(/C=N\Nc1nc2ccccc2c(=O)[nH]1)OC(C)=O (stereo not given),> 100 µM,> 100 µM,> 100 µM,> 100 µM,> 100 µM,> 100 µM,> 100 µM,> 100 µM,> 100 µM,> 100 µM,> 100 µM,> 100 µM,> 100 µM,> 100 µM,> 100 µM,> 100 µM,> 100 µM,–,–,40.6 µM and 88.4 µM
CCOC(=O)C(=NN(C)c1ncccc1N)C(=O)OCC,87.2 µM,> 100 µM,–,> 100 µM,> 100 µM,29 µM,> 100 µM,> 100 µM,59.1 µM,83.3 µM,44.5 µM,53.7 µM,> 100 µM,69.8 µM,> 100 µM,> 100 µM,> 100 µM,–,–,–
C/C(CC(O)(C(F)(F)Cl)C(F)(F)Cl)=N\Nc1ccccc1,> 100 µM,> 100 µM,85.2 µM,67.2 µM,> 100 µM,> 100 µM,66.2 µM,> 100 µM,> 100 µM,> 100 µM,> 100 µM,84.2 µM,> 100 µM,> 100 µM,79.7 µM,89.4 µM,> 100 µM,–,–,–
Cc1cc(C)c2c(=O)cc(-c3ccccc3)[nH]c2c1,11.4 µM,10.5 µM,23.5 µM,> 47.2 µM,> 100 µM,> 52 µM,21.2 µM,35.4 µM,> 100 µM,39.7 µM,41.6 µM,> 100 µM,22.8 µM,8.11 µM,55.9 µM,18 µM,28.7 µM,–,–,–
